Experiment in all cases: Glasshouse assay for herbicidal activity (pre- and post-emergence), percentage phytotoxicity
Common to all, as to assay type: in vivo

Test [1] has as its system Echinochloa crus-galli (ECHCG). Particulars: Echinochloa crus-galli. The essentials: (§1)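 Herbicide was applied to potted plants sown in standard soil, one day after sowing for PRE and after about 12 days for POST. Visual percentage damage ratings followed at 15 DAA (POST) and 20 DAA (PRE).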
Test [2] deals with Alopecurus myosuroides (ALOMY). The settings on record: Alopecurus myosuroides. The essentials: as §1
A further test relates to Lolium perenne (LOLPE). Particulars: Lolium perenne. The essentials: as §1
The next test has as its system Avena fatua (AVEFA). Particulars: Avena fatua. The procedure, abridged: as §1
Setting [3] is: post-emergence, 360 h, POST-emergence, rate 250 g/ha, visual score 15 DAA (100%=total damage, 0%=no damage), read-out: Post-emergence herbicidal activity (percentage phytotoxicity) ECHCG POST.
[4] abbreviates: pre-emergence, 480 h, PRE-emergence, rate 250 g/ha, visual score 20 DAA (100%=total damage, 0%=no damage), read-out: Pre-emergence herbicidal activity (percentage phytotoxicity) ECHCG PRE.
The mark [5] stands for this setting: post-emergence, 360 h, POST-emergence, rate 250 g/ha, visual score 15 DAA (100%=total damage, 0%=no damage), read-out: Post-emergence herbicidal activity (percentage phytotoxicity) ALOMY POST.
Where [6] appears, read: pre-emergence, 480 h, PRE-emergence, rate 250 g/ha, visual score 20 DAA (100%=total damage, 0%=no damage), read-out: Pre-emergence herbicidal activity (percentage phytotoxicity) ALOMY PRE.
Where [7] appears, read: post-emergence, 360 h, POST-emergence, rate 250 g/ha, visual score 15 DAA (100%=total damage, 0%=no damage), read-out: Post-emergence herbicidal activity (percentage phytotoxicity) LOLPE POST.
Where [8] appears, read: pre-emergence, 480 h, PRE-emergence, rate 250 g/ha, visual score 20 DAA (100%=total damage, 0%=no damage), read-out: Pre-emergence herbicidal activity (percentage phytotoxicity) LOLPE PRE.
The mark [9] stands for this setting: post-emergence, 360 h, POST-emergence, rate 250 g/ha, visual score 15 DAA (100%=total damage, 0%=no damage), read-out: Post-emergence herbicidal activity (percentage phytotoxicity) AVEFA POST.
[10] abbreviates: pre-emergence, 480 h, PRE-emergence, rate 250 g/ha, visual score 20 DAA (100%=total damage, 0%=no damage), read-out: Pre-emergence herbicidal activity (percentage phytotoxicity) AVEFA PRE.
Where [11] appears, read: post-emergence, 360 h, 250 g/ha, post-emergence, 15 DAA, visual assessment (100%=total damage, 0%=no damage), read-out: Post-emergence herbicidal activity (percentage phytotoxicity) ECHCG POST.
[12] abbreviates: pre-emergence, 480 h, 250 g/ha, pre-emergence, 20 DAA, visual assessment (100%=total damage, 0%=no damage), read-out: Pre-emergence herbicidal activity (percentage phytotoxicity) ECHCG PRE.
Setting [13] is: post-emergence, 360 h, 250 g/ha, post-emergence, 15 DAA, visual assessment (100%=total damage, 0%=no damage), read-out: Post-emergence herbicidal activity (percentage phytotoxicity) ALOMY POST.
The mark [14] stands for this setting: pre-emergence, 480 h, 250 g/ha, pre-emergence, 20 DAA, visual assessment (100%=total damage, 0%=no damage), read-out: Pre-emergence herbicidal activity (percentage phytotoxicity) ALOMY PRE.
Where [15] appears, read: post-emergence, 360 h, 250 g/ha, post-emergence, 15 DAA, visual assessment (100%=total damage, 0%=no damage), read-out: Post-emergence herbicidal activity (percentage phytotoxicity) LOLPE POST.
[16] abbreviates: pre-emergence, 480 h, 250 g/ha, pre-emergence, 20 DAA, visual assessment (100%=total damage, 0%=no damage), read-out: Pre-emergence herbicidal activity (percentage phytotoxicity) LOLPE PRE.
Where [17] appears, read: post-emergence, 360 h, 250 g/ha, post-emergence, 15 DAA, visual assessment (100%=total damage, 0%=no damage), read-out: Post-emergence herbicidal activity (percentage phytotoxicity) AVEFA POST.
[18] abbreviates: pre-emergence, 480 h, 250 g/ha, pre-emergence, 20 DAA, visual assessment (100%=total damage, 0%=no damage), read-out: Pre-emergence herbicidal activity (percentage phytotoxicity) AVEFA PRE.
[19] abbreviates: post-emergence, 360 h, Rate 250 g/ha, post-emergence, assessed visually 15 DAA, 100%=total damage, 0%=no damage, read-out: Post-emergence herbicidal activity (percentage phytotoxicity) ECHCG POST.
Where [20] appears, read: pre-emergence, 480 h, Rate 250 g/ha, pre-emergence, assessed visually 20 DAA, 100%=total damage, 0%=no damage, read-out: Pre-emergence herbicidal activity (percentage phytotoxicity) ECHCG PRE.
Where [21] appears, read: post-emergence, 360 h, Rate 250 g/ha, post-emergence, assessed visually 15 DAA, 100%=total damage, 0%=no damage, read-out: Post-emergence herbicidal activity (percentage phytotoxicity) ALOMY POST.
Setting [22] is: pre-emergence, 480 h, Rate 250 g/ha, pre-emergence, assessed visually 20 DAA, 100%=total damage, 0%=no damage, read-out: Pre-emergence herbicidal activity (percentage phytotoxicity) ALOMY PRE.
Where [23] appears, read: post-emergence, 360 h, Rate 250 g/ha, post-emergence, assessed visually 15 DAA, 100%=total damage, 0%=no damage, read-out: Post-emergence herbicidal activity (percentage phytotoxicity) LOLPE POST.
The mark [24] stands for this setting: pre-emergence, 480 h, Rate 250 g/ha, pre-emergence, assessed visually 20 DAA, 100%=total damage, 0%=no damage, read-out: Pre-emergence herbicidal activity (percentage phytotoxicity) LOLPE PRE.
Setting [25] is: post-emergence, 360 h, Rate 250 g/ha, post-emergence, assessed visually 15 DAA, 100%=total damage, 0%=no damage, read-out: Post-emergence herbicidal activity (percentage phytotoxicity) AVEFA POST.
The mark [26] stands for this setting: pre-emergence, 480 h, Rate 250 g/ha, pre-emergence, assessed visually 20 DAA, 100%=total damage, 0%=no damage, read-out: Pre-emergence herbicidal activity (percentage phytotoxicity) AVEFA PRE.

Structures are written as SMILES. Where two headings read alike, the source gives them in different places.

Turning to `Cc1cc(-c2ncc(Cl)cn2)cc(C)c1C1C(=O)CC(CC(=O)N(C)C(C)C)C1=O` (stereo not drawn) [Compound B351], the pest or weed control at 250 g/ha in test [1] (post-emergence, 360 h, Rate 250 g/ha, post-emergence, visual assessment 15 DAA, 100%=total damage, 0%=no damage, read-out: Post-emergence herbicidal activity (percentage phytotoxicity) ECHCG POST) worked out at 100%; in test [1] (pre-emergence, 480 h, Rate 250 g/ha, pre-emergence, visual assessment 20 DAA, 100%=total damage, 0%=no damage, read-out: Pre-emergence herbicidal activity (percentage phytotoxicity) ECHCG PRE), 100%; in test [2] (post-emergence, 360 h, Rate 250 g/ha, post-emergence, visual assessment 15 DAA, 100%=total damage, 0%=no damage, read-out: Post-emergence herbicidal activity (percentage phytotoxicity) ALOMY POST), 100%; in test [2] (pre-emergence, 480 h, Rate 250 g/ha, pre-emergence, visual assessment 20 DAA, 100%=total damage, 0%=no damage, read-out: Pre-emergence herbicidal activity (percentage phytotoxicity) ALOMY PRE), 100%; with Lolium perenne (LOLPE) (post-emergence, 360 h, Rate 250 g/ha, post-emergence, visual assessment 15 DAA, 100%=total damage, 0%=no damage, read-out: Post-emergence herbicidal activity (percentage phytotoxicity) LOLPE POST), 100%; in the test on Lolium perenne (LOLPE) (pre-emergence, 480 h, Rate 250 g/ha, pre-emergence, visual assessment 20 DAA, 100%=total damage, 0%=no damage, read-out: Pre-emergence herbicidal activity (percentage phytotoxicity) LOLPE PRE) it was 100%. Besides, the pest or weed control at 250 g/ha in the test on Avena fatua (AVEFA) (post-emergence, 360 h, Rate 250 g/ha, post-emergence, visual assessment 15 DAA, 100%=total damage, 0%=no damage, read-out: Post-emergence herbicidal activity (percentage phytotoxicity) AVEFA POST) was found to be 100%; in the test on Avena fatua (AVEFA) (pre-emergence, 480 h, Rate 250 g/ha, pre-emergence, visual assessment 20 DAA, 100%=total damage, 0%=no damage, read-out: Pre-emergence herbicidal activity (percentage phytotoxicity) AVEFA PRE), 90%.
Regarding `C=CC(C)NC(=O)CC1CC(=O)C(c2c(C)cc(C)cc2C)C1=O` (stereo not drawn) [Compound B179], the pest or weed control at 250 g/ha in test [1] (setting [3]) worked out at 100%; in test [1] (setting [4]) it was 100%; in test [2] (setting [5]) it was 90%; in test [2] (setting [6]), 90%; in the test with Lolium perenne (LOLPE) (setting [7]) it was 90%; in the test on Lolium perenne (LOLPE) (setting [8]) it was 100%. The pest or weed control at 250 g/ha turned out to be 80% with Avena fatua (AVEFA) (setting [9]) and 70% with Avena fatua (AVEFA) (setting [10]).
Consider `Cc1cc(-c2ncc(F)cc2F)cc(C)c1C1C(=O)C[C@H](CC(=O)NC(C)(C)C)C1=O` (stereo partly drawn) [Compound B52], for which the pest or weed control at 250 g/ha in test [1] (setting [11]) was 100%; in test [1] (setting [12]), 90%; in test [2] (setting [13]), 100%; in test [2] (setting [14]), 90%; in the test on Lolium perenne (LOLPE) (setting [15]) it was 100%; in the test with Lolium perenne (LOLPE) (setting [16]), 100%. Further, the pest or weed control at 250 g/ha worked out at 90% in the test with Avena fatua (AVEFA) (setting [17]) and 70% in the test with Avena fatua (AVEFA) (setting [18]).
For the molecule `Cc1cc(-n2cc(Cl)cn2)cc(C)c1C1C(=O)CC(CC(=O)NCC(=O)c2ccccc2)C1=O` (stereo not drawn) [Compound A137], the pest or weed control at 250 g/ha in test [1] (setting [19]) was determined as 90%; in test [1] (setting [20]), 70%; in test [2] (setting [21]), 40%; in test [2] (setting [22]), 60%; with Lolium perenne (LOLPE) (setting [23]) it was 60%; with Lolium perenne (LOLPE) (setting [24]), 70%. Also, the pest or weed control at 250 g/ha stood at 70% in the test on Avena fatua (AVEFA) (setting [25]) and 60% in the test on Avena fatua (AVEFA) (setting [26]).
Regarding `Cc1cc(C)c(C2C(=O)CC(CC(=O)NCc3cccc(C#N)c3)C2=O)c(C)c1` (stereo not drawn) [Compound B9], the pest or weed control at 250 g/ha in test [1] (setting [11]) is 70%; in test [1] (setting [12]), 100%; in test [2] (setting [13]), 70%; in test [2] (setting [14]), 70%; in the test on Lolium perenne (LOLPE) (setting [15]), 70%; in the test on Lolium perenne (LOLPE) (setting [16]), 90%. Further, the pest or weed control at 250 g/ha in the test with Avena fatua (AVEFA) (setting [17]) and in the test on Avena fatua (AVEFA) (setting [18]) was 70% throughout.
On to `Cc1cnc(CNC(=O)CC2CC(=O)C(c3c(C)cc(-c4ncc(Cl)cc4F)cc3C)C2=O)cn1` (stereo not drawn) [Compound A152], for which the pest or weed control at 250 g/ha in test [1] (setting [19]) was found to be 90%; in test [1] (setting [20]), 100%; in test [2] (setting [21]), 90%; in test [2] (setting [22]), 70%; with Lolium perenne (LOLPE) (setting [23]), 100%; in the test with Lolium perenne (LOLPE) (setting [24]) it was 90%. For the same molecule, the pest or weed control at 250 g/ha in the test with Avena fatua (AVEFA) (setting [25]) and with Avena fatua (AVEFA) (setting [26]) was 100% throughout.
For the molecule `Cc1cc(-c2ncc(F)cc2F)cc(C)c1C1C(=O)CC(CC(=O)N2CCOCC2)C1=O` (stereo not drawn) [Compound B101], the pest or weed control at 250 g/ha in test [1] (setting [11]) was found to be 100%; in test [1] (setting [12]) it was 100%; in test [2] (setting [13]), 90%; in test [2] (setting [14]), 90%; in the test on Lolium perenne (LOLPE) (setting [15]), 100%; in the test on Lolium perenne (LOLPE) (setting [16]), 100%. Moreover, the pest or weed control at 250 g/ha with Avena fatua (AVEFA) (setting [17]) is 90%; in the test on Avena fatua (AVEFA) (setting [18]) it was 70%.
Regarding `C#CCN(C)C(=O)CC1CC(=O)C(c2c(C)cc(OCC(F)(F)F)cc2CC)C1=O` (stereo not drawn) [Compound B222], the pest or weed control at 250 g/ha (in test [1] (setting [3]); in test [1] (setting [4]); in test [2] (setting [5]); in test [2] (setting [6]); with Lolium perenne (LOLPE) (setting [7]); with Lolium perenne (LOLPE) (setting [8])) was 100% each time. The pest or weed control at 250 g/ha was 100% in the test with Avena fatua (AVEFA) (setting [9]) and 90% in the test on Avena fatua (AVEFA) (setting [10]).
As to `COCC(C)(C)NC(=O)CC1CC(=O)C(c2c(C)cc(-c3ncc(F)cn3)cc2C)C1=O` (stereo not drawn) [Compound B327], the pest or weed control at 250 g/ha worked out at 100% in test [1] (setting [3]); 100% in test [1] (setting [4]); 100% in test [2] (setting [5]); 100% in test [2] (setting [6]); 90% with Lolium perenne (LOLPE) (setting [7]); 100% in the test with Lolium perenne (LOLPE) (setting [8]). For the same molecule, the pest or weed control at 250 g/ha was 100% in the test on Avena fatua (AVEFA) (setting [9]) and 80% with Avena fatua (AVEFA) (setting [10]).

The values are drawn from US10206394B2, “Herbicidal compounds” (Syngenta Participations AG, priority 2014, dated 2019).
